Results on eight molecules are retold here after patent US8044211B2 (Chroma Therapeutics Ltd., priority 2006, dated 2011).

Where only a bound is given, the exact number is not on record here.

The test system of test [1] is human whole blood TNFα release. The test is described as follows: LPS-stimulation of human whole blood, TNF-α by ELISA. Particulars: IC50 range, LPS 100 ng/ml, 6 hrs, read-out: Inhibitor activity versus human whole blood TNFα release. The format is cell-based. On the procedure: Whole blood was taken by venous puncture using heparinised vacutainers (Becton Dickinson) and diluted in an equal volume of RPMI 1640 tissue culture media (Sigma). 100 μl was plated in V-bottomed 96 well tissue culture treated plates. 2 hrs after the addition of the inhibitor in 100 μl of RPMI 1640 media, the blood was stimulated with LPS (E. coli strain 005:B5, Sigma) at a final concentration of 100 ng/ml and incubated at 37° C. in 5% CO2 for 6 hrs. TNF-α levels were measured from cell-free supernatants by sandwich ELISA (R&D Systems #QTA00B)

The test system of another test is THP-1 TNFα release. In words: LPS-stimulation of THP-1 cells, TNF-α by ELISA. The format is cell-based. Conditions: Homo sapiens, THP-1; IC50 range; LPS 1 μg/ml, 6 hrs; read-out: Inhibitor activity versus THP-1 TNFα release. An outline of the steps: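 THP-1 cells (4×10^4/well) rested 16 h, preincubated 2 h with inhibitor, then stimulated with 1 μg/ml E. coli LPS for 6 h at 37 °C, 5% CO2. TNF-α quantified in cell-free supernatants by sandwich ELISA.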

For a further test, the target named is T1, p38 MAP Kinase a (Homo sapiens, UniProt Q16539).
T1 construct: purchased Upstate (Dundee UK)
T1 sequence (Q16539 whole entry): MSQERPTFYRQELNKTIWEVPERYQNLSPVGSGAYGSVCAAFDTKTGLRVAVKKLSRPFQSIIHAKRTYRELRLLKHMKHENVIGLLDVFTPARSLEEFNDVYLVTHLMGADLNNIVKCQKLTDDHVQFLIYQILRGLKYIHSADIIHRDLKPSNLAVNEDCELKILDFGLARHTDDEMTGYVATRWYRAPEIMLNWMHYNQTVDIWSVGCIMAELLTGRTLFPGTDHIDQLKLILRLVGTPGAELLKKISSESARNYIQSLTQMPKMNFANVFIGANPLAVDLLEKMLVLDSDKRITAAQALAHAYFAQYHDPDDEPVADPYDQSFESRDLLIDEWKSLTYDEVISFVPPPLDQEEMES
In words: p38 MAP Kinase activity, radiometric filter-binding assay (Upstate). The format is biochemical. Conditions: IC50 range; ATP at or close to Km; read-out: Inhibitor activity versus p38 MAPKa. An outline of the steps: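 Human p38 MAP kinase α (5-10 mU) with 0.33 mg/mL myelin basic protein, 25 mM Tris pH 7.5, 0.002 mM EGTA, 10 mM Mg acetate and [γ-33P]ATP at or near Km; 40 min at RT. Phosphoric acid stop, P30 filter binding and scintillation counting; IC50 from 9-step ⅓-log dilutions from 10 μM top concentration, duplicates.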

As to `Nc1c(C(=O)c2ccc(F)cc2F)ccc(=O)n1-c1c(F)cc(OCCCN[C@H](C(=O)OC2CCCC2)C2CCCCC2)cc1F` [Example 48, Cyclopentyl(2S)-[(3-{4-[6-amino-5-(2,4-difluorobenzoyl)-2-oxopyridin-1(2H)-yl]-3,5-difluorophenoxy}propyl)amino](cyclohexyl)acetate], the IC50 is greater than 1000 nM in test [1], less than 100 nM with THP-1 TNFα release and less than 100 nM on p38 MAP Kinase a.

In the case of `CC(C)(C)OC(=O)[C@@H](NCCCOc1cc(F)c(-n2c(N)c(C(=O)c3ccc(F)cc3F)ccc2=O)c(F)c1)C1CCCCC1` [Example 49, tert-Butyl (2S)-[(3-{4-[6-amino-5-(2,4-difluorobenzoyl)-2-oxopyridin-1(2H)-yl]-3,5-difluorophenoxy}propyl)amino](cyclohexyl)acetate], the results for the IC50 (in test [1]; with THP-1 TNFα release; at p38 MAP Kinase a) were greater than 1000 nM, 100 to 1000 nM and less than 100 nM, respectively.

Consider `NCC[C@H](NCCCOc1cc(F)c(-n2c(N)c(C(=O)c3ccc(F)cc3F)ccc2=O)c(F)c1)C(=O)OC1CCCC1` [Example 52, Cyclopentyl(2S)-4-amino-2-[(3-{4-[6-amino-5-(2,4-difluorobenzoyl)-2-oxopyridin-1(2H)-yl]-3,5-difluorophenoxy}propyl)amino]butanoate], for which the IC50 is 100 to 1000 nM in test [1], less than 100 nM in the test on THP-1 TNFα release and less than 100 nM on p38 MAP Kinase a.

As for `CC(C)C[C@H](NCCCCCOc1cc(F)c(-n2c(N)c(C(=O)c3ccc(F)cc3F)ccc2=O)c(F)c1)C(=O)OC1CCCC1` [Example 53, Cyclopentyl N-(5-{4-[6-amino-5-(2,4-difluorobenzoyl)-2-oxopyridin-1(2H)-yl]-3,5-difluorophenoxy}pentyl)-L-leucinate], the values for the IC50 (in test [1]; in the test with THP-1 TNFα release; on p38 MAP Kinase a) were 100 to 1000 nM, less than 100 nM and less than 100 nM, respectively.

With `CC(C)C[C@H](NCCc1ccc(-n2c(N)c(C(=O)c3ccc(F)cc3)ccc2=O)cc1)C(=O)OC1CCCC1` [Example 57, Cyclopentyl N-[2-(4-{6-amino-5-[(4-fluorophenyl)carbonyl]-2-oxopyridin-1(2H)-yl}phenyl)ethyl]-L-leucinate], the IC50 in test [1] was 100 to 1000 nM; in the test with THP-1 TNFα release, less than 100 nM; on p38 MAP Kinase a it was 100 to 1000 nM.

Turning to `CC(C)C[C@H](NCCc1ccc(-n2c(N)c(C(=O)c3ccc(F)cc3)ccc2=O)cc1)C(=O)OC(C)(C)C` [Example 58, tert-Butyl N-[2-(4-{6-amino-5-[(4-fluorophenyl)carbonyl]-2-oxopyridin-1(2H)-yl}phenyl)ethyl]-L-leucinate], the IC50 in test [1] is 100 to 1000 nM; with THP-1 TNFα release, less than 100 nM; on p38 MAP Kinase a, 100 to 1000 nM.

Consider `CC(C)C[C@H](NCCc1ccc(-n2c(N)c(C(=O)c3ccc(F)cc3F)ccc2=O)cc1)C(=O)OC1CCCC1` [Example 59, Cyclopentyl N-[2-(4-{6-amino-5-[(2,4-difluorophenyl)carbonyl]-2-oxopyridin-1(2H)-yl}phenyl)ethyl]-L-leucinate], for which the figures for the IC50 (in test [1]; in the test on THP-1 TNFα release; at p38 MAP Kinase a) were 100 to 1000 nM, less than 100 nM and 100 to 1000 nM, respectively.

On to `CC(C)C[C@H](NCCCc1ccc(-n2c(N)c(C(=O)c3ccc(F)cc3)ccc2=O)cc1)C(=O)OC1CCCC1` [Example 67, Cyclopentyl N-[3-(4-{6-amino-5-[(4-fluorophenyl)carbonyl]-2-oxopyridin-1(2H)-yl}phenyl)propyl]-L-leucinate], for which the IC50 is greater than 1000 nM in test [1], 100 to 1000 nM in the test on THP-1 TNFα release and 100 to 1000 nM on p38 MAP Kinase a.
